Measured values: patent US20250108036A1, “COMPOSITIONS FOR REMOVING SENESCENT CELLS AND USES THEREOF” (LIFECEUTIX CO., LTD., priority 2021, published 2025)
Like-named read-outs stand apart in the source and are kept apart here.

Experiments:
Format in all cases: cell-based, human
HMGN1 [1] = assay: HMGN1 ELISA in culture medium of A549 cancer cells (Example 12, Table 66); settings: Homo sapiens; for activity at 90 µM: test compound 90 μM
A549 = assay: CellTiter-Glo cell viability of senescent A549 cancer cells (Example 12, Table 67); settings: Homo sapiens; for viability at 10 µM: 10 μM test compound; for viability at 30 µM: 30 μM test compound; for viability at 90 µM: 90 μM test compound
[2] = test system: foreskin cells in which senescence was induced by doxorubicin; assay: CellTiter-Glo cell viability of doxorubicin-induced senescent foreskin cells (Examples 1-2, 10, 11, 13; Tables 4, 63, 65); settings: Homo sapiens, 72 h, read-out: Survival (%); for viability at 10 µM: 10 μM test compound; for viability at 30 µM: 30 μM test compound; for viability at […]: […] test compound
Method: After 3 days, cell viability was measured using CellTiter-Glo Luminescent Cell Viability Assay (Promega) or light microscopy.

HMGN1 [3] = assay: HMGN1 ELISA in culture medium of foreskin cells (Examples 10, 11; Tables 62, 63, 64); settings: Homo sapiens, read-out: HMGN1
[4] = A549, doxorubicin-induced senescent A549 cells, ELISA, DMSO = 100, read-out: HMGN1 (amount of HMGN1 secreted in the cell culture)
[5] = A549, doxorubicin-induced senescent A549 cancer cells, 1.1 μM test compound, CellTiter-Glo, read-out: Survival (%)
[6] = A549, doxorubicin-induced senescent A549 cancer cells, CellTiter-Glo, read-out: Survival (%)
[7] = 1.1 μM test compound, doxorubicin-induced senescent foreskin cells, CellTiter-Glo, 0 μM = 100
[8] = doxorubicin-induced senescent foreskin cells, CellTiter-Glo, 0 μM = 100
[9] = 30 μM test compound, doxorubicin-treated foreskin cells, DMSO = 100
[10] = A549, doxorubicin-induced senescent A549 cells, test compound 30 μM, ELISA, DMSO = 100, read-out: HMGN1 (amount of HMGN1 secreted in the cell culture)

Compound	activity at 90 µM (HMGN1 [1]; [4]) [%]	viability at 1.1 µM (A549; [5]) [%]	viability at 10 µM (A549; [6]) [%]	viability at 30 µM (A549; [6]) [%]	viability at 90 µM (A549; [6]) [%]	viability at 1.1 µM [2, 7] [%]	viability at 10 µM [2, 8] [%]	viability at 30 µM [2, 8] [%]	viability at […] [2, 8] [%]	activity at 30 µM (HMGN1 [3]; [9]) [%]	activity at 30 µM (HMGN1 [1]; [10]) [%]	activity at 30 µM (HMGN1 [1]; A549, read-out: HMGN1 (amount of HMGN1 secreted in the cell culture)) [%]	viability at 1.1 µM (A549; A549, read-out: Survival (%)) [%]	viability at 1.1 µM [2] [%]	activity at 30 µM (HMGN1 [3]) [%]
CCn1c2ccccc2c2cc(NC(=O)COC(=O)C3CCC(=O)N3)ccc21 (stereo not drawn) [LX-902]	234	94.6	88.2	62.7	25.8	97.9	72.8	23.9	91.6	268	–	–	–	–	–
CC(=O)N[C@@H](Cc1c[nH]c2ccccc12)C(=O)N[C@@H](CCC(=O)C=[N+]=[N-])C(=O)OC(C)C [LX-3201, Sirpiglenastat, reference compound]	–	96.5	68.1	12.8	–	99.3	20.1	–	91.9	286	309	–	–	–	–
Cc1ccc(C(=O)C(C)CN2CCCCC2)cc1 (stereo not drawn) [LX-1403, Tolperisone, reference compound]	–	97.6	70	8.4	–	102	55.4	18.3	97.6	282	306	–	–	–	–
C[C@@H]1Cc2c([nH]c3ccccc23)[C@H](c2ccc(F)cc2)[C@H]1C#N [LX-418]	–	17.7	–	–	–	5.1	–	–	–	284	286	–	–	–	–
CC1(CCO)CC2(CCC(C(C)(C)C)CC2)OO1 (stereo not drawn) [LX-603]	–	94.1	53.6	17.5	–	91.7	51.6	16.8	74.1	263	332	–	–	–	–
C[C@@H]1C(=O)C(C#N)=C[C@]2(C)C3=CC(=O)[C@@H]4[C@@H]5CC(C)(C)CC[C@]5(NC(=O)C(C)(F)F)CC[C@@]4(C)[C@]3(C)CC[C@@H]12 [LX-2201]	–	28.4	–	–	–	9.8	–	–	–	318	326	–	–	–	–
C[C@@H]1[C@H]2[C@H]3C(=O)C=C4[C@@]5(C)C=C(C#N)C(=O)C(C)(C)[C@@H]5CC[C@@]4(C)[C@]3(C)CC[C@@]2(CO)CC[C@H]1C [LX-2512]	–	88.5	11.7	–	–	38.2	–	–	3.2	276	274	–	–	–	–
CCCC[C@H]1Cc2c([nH]c3ccccc23)[C@H](c2ccc(NC3CCC3)cc2)N1C(=O)C#C[Si](C)(C)C [LX-422]	–	–	–	–	–	–	–	–	–	–	–	336	4.8	1.8	294
COC1=C(OC)C(=O)C(CCCCCCCCCC[P+](c2ccccc2)(c2ccccc2)c2ccccc2)=C(C)C1=O [LX-1203, Mitoquinone]	–	88.7	15.5	–	–	–	1.5	–	38.2	311	298	–	–	–	–
Cc1cc(-c2ccc(-n3nc(-c4ccccc4F)c4c3[C@]3(C)C=C(C#N)C(=O)[C@H](C)[C@H]3CC4)cc2)cnn1 [LX-2506]	–	98.3	26.4	–	–	91	–	–	11.8	279	267	–	–	–	–
COC(=O)[C@]12CCC(C)(C)C[C@H]1[C@H]1C(=O)C=C3[C@@]4(C)C=C(C#N)C(=O)C(C)(C)[C@@H]4CC[C@@]3(C)[C@]1(C)CC2 [LX-2102, Bardoxolone methyl, reference compound]	–	88.4	–	–	–	9.4	–	–	–	288	233	–	–	–	–
CCC[C@H]1C(=O)C(C#N)=C[C@@]2(C)c3nc(-c4ccnc5ccccc45)nc(-c4ccccc4F)c3CC[C@H]12 [LX-2502]	–	97.2	5.9	–	–	49.6	–	–	13.4	258	297	–	–	–	–
CC1(C)CC[C@]2(C(=O)O)CC[C@]3(C)C(=CC[C@@H]4[C@@]5(C)CC[C@H](O)C(C)(C)[C@@H]5CC[C@]43C)[C@@H]2C1 [LX-2003, Oleanolic acid]	218	97.5	90.6	52.7	18.3	89.6	34.6	14	65.8	298	–	–	–	–	–
CCc1ccc(C(=O)C(C)CN2CCCC2)cc1 (stereo not drawn) [LX-1405, Inaperisone, reference compound]	–	97.1	82.8	37.4	–	102	69.6	28.5	92.7	219	187	–	–	–	–
C[C@@H]1C(=O)C(C#N)=C[C@]2(C)c3nc(CCO)n(-c4ccccc4)c3CC[C@@H]12 [LX-2409]	–	88.5	26.4	–	–	37.1	–	–	12.8	239	281	–	–	–	–
CCC(=O)NC[C@]12CCC(C)(C)C[C@H]1[C@H]1C(=O)C=C3[C@@]4(C)C=C(C#N)C(=O)C(C)(C)[C@@H]4CC[C@@]3(C)[C@]1(C)CC2 [LX-2510]	–	95.7	2.9	–	–	62.9	–	–	11.8	288	317	–	–	–	–
Cc1onc(C(=O)N2CCN(C(c3ccc(Cl)cc3)c3ccc(OCc4cn(CCOCCOCCOCCOCCNc5cccc6c5C(=O)N(C5CCC(=O)NC5=O)C6=O)nn4)cc3)CC2)c1[N+](=O)[O-] (stereo not drawn) [LX-436, 4-((14-(4-((4-((4-chlorophenyl)(4-(5-methyl-4-nitroisooxazol-3-carbonyl)piperazin-1-yl)methyl)phenoxy)methyl)-1H-1,2,3-triazol-1-yl)-3,6,9,12-tetraoxatetradecyl)amino)-2-(2,6-dioxopiperidin-3-yl)isoindolin-1,3-dione]	–	99.5	–	–	–	84.4	–	–	3.8	299	278	–	–	–	–
CC(O)[C@]1(C)C(=O)C(C#N)=C[C@]2(C)C3=CC(=O)[C@]45OC(=O)[C@@]6(CCC(C)(C)C[C@H]64)CC[C@@]5(C)[C@]3(C)CC[C@@H]12 (stereo partly drawn) [LX-2501]	–	14.4	–	–	–	11.1	–	–	–	309	333	–	–	–	–
COC(=O)/C=C\C(C#N)(C#N)/N=C/c1ccc(C)cc1 [LX-920]	197	98.4	95.3	93.9	25.1	100	86.2	23.8	95.4	278	–	–	–	–	–
